Source: publication PMC6009956, “Design, synthesis and biological activity of N^4-phenylsubstituted-7H-pyrrolo[2,3-d]pyrimidin-4-amines as dual inhibitors of aurora kinase A and epidermal growth factor receptor kinase” (Journal of Enzyme Inhibition and Medicinal Chemistry, 2017)
Read-outs that look alike come from different tables or passages of the source.

Tests used:
FADU cells = experiment: Cell killing, PI staining and FACS, FADU; type: cell-based
Description: FADU, BHY, SAS and CAL cell lines were obtained from ATCC-LGC and were cultured in DMEM (Invitrogen, Germany) supplemented with 10% of heat activated bovine serum (FBS, PAA, Germany), 1% of glutamine, 1% of penicillin-streptomycin (Invitrogen, Germany). To measure proliferation, SCCHN cells were split, reseeded (5 × 10^5 in 25 cm^2 flasks) and counted at the indicated time points. Cells were then replated at the initial density. The fold increase in cell number was calculated, all given results are based on triplicate experiments. To assess cell death 5 × 10^5 cells were stained with propidium iodide (PI, Sigma, Germany). Following incubation, cells were washed, resuspended in PBS, and analysed by flow cytometry. The fraction of PI-positive cells is reported as dead cell fraction.
Figure 3. […] Cells were incubated with compound 2 for 48 h and then subjected to PI staining and FACS analysis. PI-positive cell fraction as measure of cell death is reported. (B) Four SCCHN cell lines were incubated with 100 μM of compound 2 and counted on the indicated days. Experiments in triplicates, fold growth shown. (C) EGFR expression of SCCHN cell lines. EGFR high and low as detected by western blot analysis (D) The SCCHN cell lines were incubated with 100 μM of compound 2 for 72 h. Percent PI positive cells are given. Experiments in triplicates.

EGFR = EGFR (Homo sapiens, UniProt P00533); experiment: ADP-Glo kinase assay, EGFR; type: biochemical; design: purchased BPS Bioscience (assay run externally by the vendor)
Sequence of EGFR (P00533 25-1210): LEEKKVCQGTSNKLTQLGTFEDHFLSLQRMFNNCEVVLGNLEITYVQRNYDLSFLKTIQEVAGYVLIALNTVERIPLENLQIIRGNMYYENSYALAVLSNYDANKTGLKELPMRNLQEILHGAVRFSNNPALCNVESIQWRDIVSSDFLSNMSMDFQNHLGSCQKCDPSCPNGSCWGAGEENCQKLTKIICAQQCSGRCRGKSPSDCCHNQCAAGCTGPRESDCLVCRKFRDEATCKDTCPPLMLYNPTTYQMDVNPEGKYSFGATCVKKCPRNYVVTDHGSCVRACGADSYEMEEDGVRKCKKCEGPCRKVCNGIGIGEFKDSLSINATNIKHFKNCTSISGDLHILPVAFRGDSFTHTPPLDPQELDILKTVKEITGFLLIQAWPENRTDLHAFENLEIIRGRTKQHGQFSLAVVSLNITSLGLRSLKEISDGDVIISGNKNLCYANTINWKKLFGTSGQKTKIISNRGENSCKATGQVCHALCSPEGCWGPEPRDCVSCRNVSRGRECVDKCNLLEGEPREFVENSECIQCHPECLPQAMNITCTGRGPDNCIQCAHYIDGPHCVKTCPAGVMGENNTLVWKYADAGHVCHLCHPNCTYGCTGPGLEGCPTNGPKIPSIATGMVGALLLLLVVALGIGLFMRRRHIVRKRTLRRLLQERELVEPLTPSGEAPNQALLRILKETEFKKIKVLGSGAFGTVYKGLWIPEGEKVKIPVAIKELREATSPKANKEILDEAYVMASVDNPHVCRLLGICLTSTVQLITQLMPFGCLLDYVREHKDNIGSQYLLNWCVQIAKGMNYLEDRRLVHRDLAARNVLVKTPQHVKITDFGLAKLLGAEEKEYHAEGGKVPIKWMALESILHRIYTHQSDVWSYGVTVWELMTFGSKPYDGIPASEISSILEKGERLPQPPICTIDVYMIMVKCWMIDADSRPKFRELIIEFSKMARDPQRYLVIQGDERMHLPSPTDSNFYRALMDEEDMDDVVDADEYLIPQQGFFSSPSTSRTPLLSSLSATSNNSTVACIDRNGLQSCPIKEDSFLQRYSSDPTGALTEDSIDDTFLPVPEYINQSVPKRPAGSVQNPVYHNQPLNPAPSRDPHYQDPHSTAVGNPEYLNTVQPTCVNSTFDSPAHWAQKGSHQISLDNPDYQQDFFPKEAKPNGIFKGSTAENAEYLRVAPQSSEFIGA

Structure (SMILES): Brc1cccc(Nc2ncnc3[nH]ccc23)c1 [Compound 2, N^4-(3-bromophenyl)-7H-pyrrolo[2,3-d]pyrimidine-4-amine]
- Cell killing (PI positive cells) (FADU cells; FADU, 100 µM, 72 h): efficient cell killing
- IC50 (FADU cells; Homo sapiens, FaDu, 48 h, read-out: IC50 cellular killing (PI-positive fraction)): 150000 nM
- EGFR inhibition (in words) (EGFR): single-digit nanomolar EGFR inhibition
- IC50 (EGFR; 10 µM ATP, triplicate, read-out: EGFR IC50 ± SD): 3.76 ± 0.12 nM
- IC50 (EGFR; 10 µM ATP/0.2 mg/ml Poly-Glu-Tyr, read-out: EGFR IC50 (dose-response curve, supplement)): 3.8 nM
- EGFR % Activity Set1 (EGFR; Log[nM] 0): 43%
- EGFR % Activity Set2 (EGFR; Log[nM] 0): 41%
- EGFR % Activity Set3 (EGFR; Log[nM] 0): 41%
- EGFR % Activity Set1 (EGFR; Log[nM] 1.0): 29%
- EGFR % Activity Set2 (EGFR; Log[nM] 1.0): 29%
- EGFR % Activity Set3 (EGFR; Log[nM] 1.0): 28%
- EGFR % Activity Set1 (EGFR; Log[nM] 1.5): 11%
- EGFR % Activity Set2 (EGFR; Log[nM] 1.5): 9%
- EGFR % Activity Set3 (EGFR; Log[nM] 1.5): 11%
- EGFR % Activity Set1 (EGFR; Log[nM] 2.0): 6%
- EGFR % Activity Set2 (EGFR; Log[nM] 2.0): 6%
- EGFR % Activity Set3 (EGFR; Log[nM] 2.0): 6%
- EGFR % Activity Set1 (EGFR; Log[nM] 2.5): 3%
- EGFR % Activity Set2 (EGFR; Log[nM] 2.5): 2%
- EGFR % Activity Set3 (EGFR; Log[nM] 2.5): 3%
- EGFR % Activity Set1 (EGFR; Log[nM] 3.0): 1%
- EGFR % Activity Set2 (EGFR; Log[nM] 3.0): 1%
- EGFR % Activity Set3 (EGFR; Log[nM] 3.0): 1%
- EGFR % Activity Set1 (EGFR; Log[nM] 3.5): 1%
- EGFR % Activity Set2 (EGFR; Log[nM] 3.5): 1%
- EGFR % Activity Set3 (EGFR; Log[nM] 3.5): 0%
- EGFR % Activity Set1 (EGFR; Log[nM] 4.0): 0%
- EGFR % Activity Set2 (EGFR; Log[nM] 4.0): 0%
- EGFR % Activity Set3 (EGFR; Log[nM] 4.0): 0%
- EGFR % Activity Set1 (EGFR; Log[nM] 4.5): 0%
- EGFR % Activity Set2 (EGFR; Log[nM] 4.5): 0%
- EGFR % Activity Set3 (EGFR; Log[nM] 4.5): 0%
- EGFR % Activity Set1 (EGFR; Log[nM] 5.0): 0%
- EGFR % Activity Set2 (EGFR; Log[nM] 5.0): 0%
- EGFR % Activity Set3 (EGFR; Log[nM] 5.0): 0%
